# Assay results as given in patent publication US6605305B2, “Plant drug for treatment of liver disease” (priority 2001, dated 2003).
# Marks after values point to notes of the source that are not given here.
# Tests used:
# [1] = tested on: mitochondrion oxygen consumption; assay: Mitochondrion oxygen consumption (respiratory control ratio) with TET; assay type: biochemical; conditions: TET 5 μl/L + SCS (100 μmol/L)
# Protocol: (§1) In present study, the effect of SCS on ATP and oxygen consumption was examined. The experiments of animal and livers were performed as previously described.
# S-180 = assay: DNA synthesis of cancer cells ([^3H]TdR incorporation), S-180; assay type: in vivo, rats
# Protocol: The method of animal and liver was described previously. Ascitric hepatoma, S180-ν, the transplantable 3924 used. After treatment with SCS (100 mg/kg), rats were injected with [^3H]-TdR (10 μc/μmole). Two hours after injection the animals were decapitated and examined. Livers and tumors were rapidly removed and blotted on filter paper. Tumors were carefully dissected free of necrotic, hemorrhagic, and nontumorous material. Tissues were minced with sharp scissors and 2 gm. DNA was prepared from the tissues. The radioactivity of the DNA was determined by liquid scintillation counting.
# The incorporation of thymidine into DNA ws expressed as cpm/mg of DNA or cpm/gm of tissue.
# ATP = ATP concentration with TET; assay type: biochemical; conditions: TET 5 μl/L + SCS (100 μmol/L)
# Protocol: as §1
# YAC-1 = assay: NK cell activity of mice (^51Cr release), YAC-1 target cells; assay type: in vivo; conditions: oral dose of 100 mg/kg
# c-myb RNA = assay: Inhibition of oncogene expression in ML-1 cells (northern blot), c-myb; assay type: cell-based, Human
# Protocol: (§2) Human myeloblastic leukemic cells (ML-1) were maintained in suspension culture in RPMI 1640 medium supplemented with 7.5% heat-inactivated FBS. Cells growth and viability were assayed by hemocytometer using trypan-blue dye exclusion.
# (§3) RNA was isolated by the CsCl gradient modification. RNA pellets were washed twice by reprecipitation in ethanol and quantitated by absorbency at […]. RNA analyzed by electrophoresis of 15 μg of RNA through 1.2% agarose formaldehyde gels followed by northern blot transfer to nitrocellulose.
# (§4) Single-standard uniformly labeled DNA probes were prepared. Probe of c-myc was a 1.7 Kb cla-Eco RI restriction fragment containing the 3′exon region of human c-myc and probe of c-myb was 1.0 Kb myb-specific Bam HI fragment. Probes for n-ras contained DNA fragments using a modification of the PCR technique. Probes for myb, myc and n-ras were isolated. The isolated fragments were labeled to high specific activity with [α^32P]-dCTP (3000 ci/mmol).
# (§5) Prehybridization of the filter was performed. The hybridization mixer contained 50,000 cpm of probe. The probes were hybridized at 58° C. in 15 mM NaCl, […] sodium citrate for 3 hours. After hybridization, they were exposed to XAR-5 film. Oncogene expression was quantitated by densitometer scanning of the autoradiography.
# RBL-5 = assay: NK cell activity of mice (^51Cr release), RBL-5 target cells; assay type: in vivo; conditions: oral dose of 100 mg/kg
# rats = assay: Subacute toxicity, 30 days; assay type: in vivo
# Cytochrome P-450 = conditions: rat, in vivo
# [2] = tested on: indomethacin induced small intestine mucosal damage; assay: Indomethacin induced small intestine mucosal damage; assay type: in vivo, rats
# Protocol: (§6) The experiment of animal was performed as previously described. Mucosal damage in gastrointestinal tract was induced ethanol or indomethacin administration. In ethanol-treated animals, after 24 hours of fasting, ethanol was given orally (70%, v/v, 10 ml/kg) by means of an oral gastric. Mucosal damage was assessed by measurement of areas with hemorrhagic lesion. In the indomethacin ulcer model, rats were refed for 1 hour after 24 hours of fasting. Thirty minutes later, indomethacin (15 mg/kg) was administered subcutaneously and rats were killed 24 hours later. Mucosal lesions were again measured along the greatest diameter. […] SCS administration was repeated again 6 hours after indomethacin injection.
# Aminopyrine demethylase = assay: Hepatic microsomal monooxygenases: aminopyrine demethylase; assay type: in vivo; conditions: rat liver microsomes, treatment group
# Gastric cancer cells = assay: Effect of SCS on p^53 mutations of cancer cells (PCR-SSCP); assay type: cell-based; conditions: Gastric cancer cells treated by SCS
# [3] = tested on: ethanol-induced gastric mucosal damage; assay: Ethanol-induced gastric mucosal damage; assay type: in vivo, rats
# Protocol: as §6
# [4] = tested on: Glutathione S-trasferase (GST); assay: Liver GST activity in CCl4-intoxicated mice; assay type: in vivo
# Protocol: Female Balb/c mice (22-24 g) were maintained at 20° C. and a 12 hours light/dark cycle. The food and water allowed adliboti. Mice were randomly assigned to groups of 20 individuals. Twenty-four hours after the last dosing, animals were administered an oral dose of CCl4 (1%, v/v, in olive oil) at 1.0 mmol/kg. In treatment group, mice were treated intragastrically with SCS at daily dose of 50 mg/kg for 4 days. Control animals were given the vehicle (i.e. olive oil, 1 mL/kg). Twenty-four hours after intoxication, heparinized blood samples were drawn from ether-anesthetized mice by cardiac puncture, and the animals were killed by cardiac excision thereafter.
# The rats were starved overnight before decapitation. The livers were perfused in situ with ice-cold 1.15% KCl solution. Tissue homogenate was prepared by homogenizing 1 g of hepatic tissue sample in 10 mL ice-cold homogenizing buffer with two 10-secbursts of atissue disintegrator at 135,000 rpm. Hepatic mitochondrial fraction was prepared by differential centrifugation in isotonic buffer ([…], 0.1 mM EDTA, 5 mM Tris, pH 7.4).
# Glutathione S-trasferase (GST) was determined. Total GST activity in the 105000 g supernatants of the liver homogenate was measured in 100 mM postassium-phosphate buffer (pH 6.5) containing 1 mM glutathione and 1 mM 1-chloro-2, 4-dinitrobenzene.
# c-myc RNA = assay: Inhibition of oncogene expression in ML-1 cells (northern blot), c-myc; assay type: cell-based, Human
# Protocol: as §2, §3, §4, §5
# [5] = intragastric route, 500 mg/kg daily, 30 consecutive days
# [6] = rats, 500 mg/kg daily injected, 30 days
smiles,measurement,setting,value
"COc1cc2c(c(OC)c1OC)-c1c(cc(OC)c(OC)c1OC)C[C@](C)(O)[C@@H](C)C2 [SCS, Schisandrin]",RCR (respiratory control ratio),[1],12.5 ± 1.10
same,Tissue inhibition rate (%),S-180; S-180 T versus C,43.2%
same,[^3H]TdR into DNA × 10^−3 cm/mg,"S-180; S-180 T, SCS 100 mg/kg",39.8 ± 5.2 × 10^−3 cm/mg
same,ATP,ATP,35.8 ± 4.0* 100 μmol/L
same,% Specific lysis (mean ± SEM) YAC-1,YAC-1; effector/target 50:1,45.0 ± 3.6 %
same,% Specific lysis (mean ± SEM) YAC-1,YAC-1; effector/target 100:1,64.0 ± 7.1%
same,Inhibition (%) c-myb RNA,c-myb RNA; SCS concentration 10 ng/ml,65.0 ± 5.7%
same,Inhibition (%) c-myb RNA,c-myb RNA; SCS concentration 50 ng/ml,67.7 ± 6.8%
same,% Specific lysis (mean ± SEM) RBL-5,RBL-5; effector/target 50:1,12.1 ± 1.2 %
same,% Specific lysis (mean ± SEM) RBL-5,RBL-5; effector/target 100:1,19.8 ± 2.0 %
same,Behavior of the animal,rats; [5],remained normal
same,"Liver and kidney function, histological picture of important organs",rats; [5],no abnormalities
same,"Consumption of water, food and body weights versus control",rats; [6],did not show any differences
same,"Depressive, excitatory or sleepiness symptoms",rats; [6],"no depressive, excitatory or sleepiness symptoms"
same,"Microscopic inspection of stomach, liver, spleen and kidneys and their relative weights",rats; [6],no alteration
same,Cytochrome P-450,Cytochrome P-450,2.80 ± 0.30 nmol/mg protein
same,Lesion area (mm^2) Small intestine,[2]; SCS 10 mg/kg,350 ± 38* mm^2
same,Lesion area (mm^2) Small intestine,[2]; SCS 25 mg/kg,321 ± 33** mm^2
same,Lesion area (mm^2) Small intestine,[2]; SCS 50 mg/kg,295 ± 30** mm^2
same,Aminopyrine demethylase,Aminopyrine demethylase,180.0 ± 20 nmol HCHO/mg protein
same,Frequency of p^53 mutations (%),Gastric cancer cells,10%
same,Lesion area (mm^2) gastric antrum,[3]; SCS 10 mg/kg,2.5 ± 0.35* mm^2
same,Lesion area (mm^2) gastric antrum,[3]; SCS 25 mg/kg,2.0 ± 0.23** mm^2
same,Lesion area (mm^2) gastric antrum,[3]; SCS 50 mg/kg,1.7 ± 0.20** mm^2
same,GST activity,"[4]; CCl4 + SCS, liver homogenate supernatant",2.60 ± 0.28 μmol/mg protein
same,Inhibition of GST activity,[4]; versus CCl4 control,55.5%
same,Inhibition (%) c-myc RNA,c-myc RNA; SCS concentration 10 ng/ml,70.5 ± 8.5%
same,Inhibition (%) c-myc RNA,c-myc RNA; SCS concentration 50 ng/ml,70.8 ± 8.9%
